Results on five compounds are retold here after paper PMC5979531, “Structural Requirements of Alkylglyceryl-L-Ascorbic Acid Derivatives for Melanogenesis Inhibitory Activity” (International Journal of Molecular Sciences, 2018).

In one series the test system is B16 melanoma 4A5 cells. Put plainly: Theophylline-stimulated melanogenesis inhibition (melanin content). Type of series: cell-based, murine. Conditions: Mus musculus, 72 h; for inhibition at 3 µM / inhibition at 10 µM / inhibition at 30 µM / inhibition at 100 µM: theophylline-stimulated B16 4A5 cells; for IC50: theophylline (1 mM)-stimulated B16 melanoma 4A5 cells. The protocol:
(§1) The effects on theophylline-stimulated melanogenesis and viability of B16 melanoma 4A5 cells were examined according to previously described protocols. Briefly, murine B16 melanoma 4A5 cells were seeded into 48-well plates in DMEM. After 24 h of culture, a test compound and theophylline (1 mM) were added and incubated for 72 h. The melanin content and cell viability were then measured. IC50 values were determined graphically.
Inhibition (%) was calculated using the following formula, where A and B indicate the optical density of the vehicle- and test compound-treated groups, respectively, and C indicates cell viability (%) (see below): Inhibition (%) = [(A − B)/A]/(C/100) × 100.

Another series concerns tyrosinase from mushroom. The series is described as follows: Mushroom tyrosinase activity. It counts as biochemical. The procedure:
Tyrosinase activities using L-tyrosine or L-DOPA as a substrate were determined according to the protocols described previously. Briefly, samples, L-tyrosine (2.5 mM, or L-DOPA, 3.0 mM), mushroom tyrosinase (46 units/mL), and phosphate buffer were mixed in a 96-well plate and incubated at 25 °C. (L-tyrosine; 30 min, L-DOPA; 5 min). The absorbance was then measured at 492 nm.

The nature of series [1]: Cell viability of B16 melanoma 4A5 cells. It counts as cell-based, murine. Conditions: mouse, B16 4A5 cells. The protocol:
as §1

Each structure is given as a SMILES string.

The term inhibition denotes the change of the read-out against control, counted positive when it falls. Low readings indicate a weak effect, high ones a strong effect. What is called IC50 is the concentration at which inhibition is half-maximal. Usually viability stands for a read-out of living cells in per cent, often relative to untreated cells. `CCCCCCCCOC1=C(OCC(O)CO)[C@@H]([C@@H](O)CO)OC1=O` (some centres unmarked) [compound 8, 3-O-(2,3-dihydroxypropyl)-2-O-octyl-AsA]: in the series on B16 melanoma 4A5 cells, testing at 3 µM gave an inhibition of 5.7 ± 6.9%, testing at 10 µM gave an inhibition of 10.6 ± 4.6%, testing at 30 µM gave an inhibition of 22.4 ± 4.4% and the inhibition at 100 µM is 64.1 ± 8.2%. In addition, the IC50 in the series on B16 melanoma 4A5 cells came to 68.8 µM. The “Inhibition (%) of mushroom tyrosinase” value in the series with tyrosinase from mushroom (Substrate: L-DOPA, 30 µM) was found to be 2.4 ± 1.1%. Further, the “Inhibition (%) of mushroom tyrosinase” value in the series with tyrosinase from mushroom (Substrate: L-DOPA, 100 µM) turned out to be 2.3 ± 2.7%. Moreover, in the series on tyrosinase from mushroom (Substrate: L-Tyrosine, 30 µM), the “Inhibition (%) of mushroom tyrosinase” value is given as −0.3 ± 2.3%. In addition, the “Inhibition (%) of mushroom tyrosinase” value in the series with tyrosinase from mushroom (Substrate: L-Tyrosine, 100 µM) is −0.6 ± 4.3%. Besides, in series [1], the viability at 72 h, 3 µM was determined as 108%; the viability at 72 h, 10 µM came out at 103%; the viability at 72 h, 30 µM worked out at 92.5%; the viability at 72 h, 100 µM came to 80%.
In the series with B16 melanoma 4A5 cells, `CCCCCCCCCOC1=C(OCC(O)CO)[C@@H]([C@@H](O)CO)OC1=O` (some centres unmarked) [compound 9, 3-O-(2,3-dihydroxypropyl)-2-O-nonyl-AsA] had an inhibition at 3 µM of 0.2 ± 4.4%, an inhibition at 10 µM of 19.1 ± 1.3%, an inhibition at 30 µM of 51.9 ± 4.6% and an inhibition at 100 µM of 91.6 ± 1.2%. The compound further showed an IC50 in the series on B16 melanoma 4A5 cells of 28.8 µM. In addition, in the series on tyrosinase from mushroom (Substrate: L-DOPA, 30 µM), the “Inhibition (%) of mushroom tyrosinase” value was 4.8 ± 6.6%. In addition, the “Inhibition (%) of mushroom tyrosinase” value in the series on tyrosinase from mushroom (Substrate: L-DOPA, 100 µM) amounted to 0.9 ± 6.0%. Moreover, the “Inhibition (%) of mushroom tyrosinase” value in the series with tyrosinase from mushroom (Substrate: L-Tyrosine, 30 µM) came out at 4.0 ± 6.1%. In addition, in the series on tyrosinase from mushroom (Substrate: L-Tyrosine, 100 µM), the “Inhibition (%) of mushroom tyrosinase” value is reported as −1.2 ± 4.5%. Also, in series [1], the viability at 72 h, 3 µM is 99.2%; the viability at 72 h, 10 µM was determined as 88.9%; the viability at 72 h, 30 µM amounted to 77.6%; the viability at 72 h, 100 µM turned out to be 58.4%.
For `CCCCCCCCCCOC1=C(OCC(O)CO)[C@@H]([C@@H](O)CO)OC1=O` (some centres unmarked) [compound 10, 2-O-decyl-3-O-(2,3-dihydroxypropyl)-AsA], in the series on B16 melanoma 4A5 cells, the inhibition at 3 µM amounted to 3.7 ± 7.8%, the inhibition at 10 µM stood at 39.2 ± 4.1%, the inhibition at 30 µM stood at 78.1 ± 4.8% and at 100 µM the inhibition was 98 ± 3.7%. In the series with B16 melanoma 4A5 cells, this compound yielded an IC50 of 13 µM. Besides, the “Inhibition (%) of mushroom tyrosinase” value in the series with tyrosinase from mushroom (Substrate: L-DOPA, 10 µM) came to 0.4 ± 1.1%. For the same compound, in the series with tyrosinase from mushroom (Substrate: L-DOPA, 30 µM), the “Inhibition (%) of mushroom tyrosinase” value was determined as 2.4 ± 2.9%. Further, the “Inhibition (%) of mushroom tyrosinase” value in the series with tyrosinase from mushroom (Substrate: L-Tyrosine, 10 µM) amounted to 1.3 ± 3.1%. The “Inhibition (%) of mushroom tyrosinase” value in the series on tyrosinase from mushroom (Substrate: L-Tyrosine, 30 µM) is 0.4 ± 1.7%. In addition, in series [1], the viability at 72 h, 3 µM turned out to be 98.6%; the viability at 72 h, 10 µM is 85.9%; the viability at 72 h, 30 µM amounted to 73.5%; the viability at 72 h, 100 µM worked out at 27.9%.
In the case of `CCCCCCCCCCCOC1=C(OCC(O)CO)[C@@H]([C@@H](O)CO)OC1=O` (some centres unmarked) [compound 11, 3-O-(2,3-dihydroxypropyl)-2-O-undecyl-AsA], in the series with B16 melanoma 4A5 cells, the inhibition at 3 µM is 12.4 ± 3%, the inhibition at 10 µM amounted to 35.4 ± 2.8%, the inhibition at 30 µM was 89.3 ± 1.5% and 100 µM produced 100 ± 4.7% inhibition. Also, in the series with B16 melanoma 4A5 cells, the IC50 is 15.1 µM. Further, the “Inhibition (%) of mushroom tyrosinase” value with tyrosinase from mushroom (Substrate: L-DOPA, 10 µM) is −4.6 ± 1.4%. Also, the “Inhibition (%) of mushroom tyrosinase” value in the series with tyrosinase from mushroom (Substrate: L-DOPA, 30 µM) is recorded as −5.1 ± 2.2%. The “Inhibition (%) of mushroom tyrosinase” value in the series with tyrosinase from mushroom (Substrate: L-Tyrosine, 10 µM) turned out to be 2.9 ± 3.9%. The “Inhibition (%) of mushroom tyrosinase” value with tyrosinase from mushroom (Substrate: L-Tyrosine, 30 µM) was found to be 1.0 ± 2.5%. In addition, in series [1], the viability at 72 h, 3 µM was determined as 106%; the viability at 72 h, 10 µM came out at 90.8%; the viability at 72 h, 30 µM was 69%; the viability at 72 h, 100 µM was determined as 25.8%.
In the series on B16 melanoma 4A5 cells, `CCCCCCCCCCCCOC1=C(OCC(O)CO)[C@@H]([C@@H](O)CO)OC1=O` (some centres unmarked) [compound 12, 3-O-(2,3-dihydroxypropyl)-2-O-dodecyl-AsA] gave an inhibition at 3 µM of 20.4 ± 10.2%, an inhibition at 10 µM of 50 ± 5.7%, an inhibition at 30 µM of 96 ± 2.9% and an inhibition at 100 µM of 97.9 ± 4.2%. The compound further came in with an IC50 in the series on B16 melanoma 4A5 cells of 10.6 µM. In addition, the “Inhibition (%) of mushroom tyrosinase” value with tyrosinase from mushroom (Substrate: L-DOPA, 10 µM) was −3.1 ± 3.3%. Besides, the “Inhibition (%) of mushroom tyrosinase” value with tyrosinase from mushroom (Substrate: L-DOPA, 30 µM) was −4.6 ± 2.2%. Further, the “Inhibition (%) of mushroom tyrosinase” value with tyrosinase from mushroom (Substrate: L-Tyrosine, 10 µM) is listed as −0.7 ± 4.5%. For the same compound, in the series with tyrosinase from mushroom (Substrate: L-Tyrosine, 30 µM), the “Inhibition (%) of mushroom tyrosinase” value is reported as −7.1 ± 1.4%. Moreover, in series [1], the viability at 72 h, 3 µM came out at 112%; the viability at 72 h, 10 µM is 104%; the viability at 72 h, 30 µM was 73.3%; the viability at 72 h, 100 µM turned out to be 24.6%.
